Experimental data published in ChEMBL document CHEMBL6087488, “Development of the First-in-Class FEM1B-Recruiting Histone Deacetylase Degraders” (J Med Chem, 2025).
Activity calls are given as the source filed them. No cut-off for these calls is given here.

Assays:
MM1.S [1] = assay: Antiproliferative activity against human MM1.S cells assessed as cell viability up to 50 uM measured after 72 hrs incubation by MTT assay; format: functional
MDA-MB-231 [2] = assay: Antiproliferative activity against human MDA-MB-231 cells assessed as cell viability up to 50 uM measured after 72 hrs incubation by MTT assay relative to control; format: functional
U-87 MG [3] = assay: Antiproliferative activity against human U-87 MG cells assessed as cell viability up to 50 uM measured after 72 hrs incubation by MTT assay relative to control; format: functional, U-87MG ATCC
MV4-11 = assay: Antiproliferative activity against human MV4-11 cells assessed as cell viability measured after 72 hrs incubation by MTT assay; format: functional, cell-based; settings: MV4-11, 72 h
MM1.S [4] = assay: Induction of apoptosis in human MM1.S cells assessed as increase in late apoptotic cells at 10 uM measured after 48 hrs by annexin V-FITC/PI staining based assay; format: functional, cell-based
MM1.S [5] = assay: Induction of apoptosis in human MM1.S cells assessed as increase in early apoptotic cells at 10 uM measured after 48 hrs by annexin V-FITC/PI staining based assay; format: functional, cell-based
MM1.S [6] = assay: Induction of cell cycle arrest in human MM1.S cells assessed as reduction in cells at […] phase at 10 uM measured after 48 hrs by propidium iodide based flow cytometry; format: functional
MM1.S [7] = assay: Antiproliferative activity against human MM1.S cells assessed as cell viability up to 50 uM measured after 72 hrs by CellTiter-Glo cell viability assay; format: functional, cell-based
MM1.S [8] = assay: Induction of cell cycle arrest in human MM1.s cells assessed as increase in cells at Sub-G1 phase at 10 uM measured after 48 hrs by propidium iodide based flow cytometry; format: functional
U-87 MG [9] = assay: Antiproliferative activity against human U-87 MG cells assessed as cell viability measured after 72 hrs incubation by MTT assay; format: functional, cell-based, U-87MG ATCC
[10] = biological target: Protein fem-1 homolog B/Histone deacetylase 8 (Homo sapiens) (UniProt Q9BY41+Q9UK73); assay: PROTAC activity at FEM1B/HDAC8 in human MM1.S cell lysate assessed as protein degradation at 1 uM measured after 24 hrs by Western immunoassay; format: subcellular
[11] = biological target: T1, Protein fem-1 homolog B/Histone deacetylase 1 (Homo sapiens, UniProt Q13547+Q9UK73); assay: PROTAC activity at FEM1B/HDAC1 in human MM.1S cell lysate assessed as maximal initial degradation at measured after 24 hrs by Western immunoassay relative to control; format: subcellular; settings: MM1.S
Target sequence in this assay (Q13547 whole entry, looked up): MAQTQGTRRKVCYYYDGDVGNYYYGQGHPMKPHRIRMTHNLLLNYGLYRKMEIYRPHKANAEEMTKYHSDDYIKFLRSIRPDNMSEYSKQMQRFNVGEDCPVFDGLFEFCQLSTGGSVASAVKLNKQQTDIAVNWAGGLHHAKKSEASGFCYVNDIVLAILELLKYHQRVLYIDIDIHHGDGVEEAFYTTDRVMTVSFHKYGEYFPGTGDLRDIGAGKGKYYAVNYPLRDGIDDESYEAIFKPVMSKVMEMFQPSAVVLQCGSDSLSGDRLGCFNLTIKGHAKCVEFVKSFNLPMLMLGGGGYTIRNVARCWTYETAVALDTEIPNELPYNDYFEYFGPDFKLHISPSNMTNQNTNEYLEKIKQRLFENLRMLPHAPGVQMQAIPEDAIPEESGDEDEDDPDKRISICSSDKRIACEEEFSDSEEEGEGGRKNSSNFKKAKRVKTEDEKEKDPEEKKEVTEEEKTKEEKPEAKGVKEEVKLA
Target sequence in this assay (Q9UK73 whole entry, looked up): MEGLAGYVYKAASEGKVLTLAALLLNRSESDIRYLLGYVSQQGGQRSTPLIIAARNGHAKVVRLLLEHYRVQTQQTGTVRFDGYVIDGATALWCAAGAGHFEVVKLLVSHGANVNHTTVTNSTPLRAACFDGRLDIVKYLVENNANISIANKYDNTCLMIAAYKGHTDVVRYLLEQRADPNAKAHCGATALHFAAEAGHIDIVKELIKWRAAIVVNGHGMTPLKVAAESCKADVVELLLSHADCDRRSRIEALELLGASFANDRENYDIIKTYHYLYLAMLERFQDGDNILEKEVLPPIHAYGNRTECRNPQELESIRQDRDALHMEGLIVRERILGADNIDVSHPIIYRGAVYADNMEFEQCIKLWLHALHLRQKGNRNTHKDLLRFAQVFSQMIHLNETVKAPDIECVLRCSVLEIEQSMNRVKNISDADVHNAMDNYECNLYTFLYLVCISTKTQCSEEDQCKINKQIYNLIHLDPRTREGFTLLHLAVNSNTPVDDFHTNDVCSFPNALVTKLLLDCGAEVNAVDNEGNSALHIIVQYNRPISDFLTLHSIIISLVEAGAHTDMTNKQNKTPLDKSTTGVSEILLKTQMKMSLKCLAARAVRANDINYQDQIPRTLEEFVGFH

MDA-MB-231 [12] = assay: Antiproliferative activity against human MDA-MB-231 cells assessed as cell viability measured after 72 hrs incubation by MTT assay; format: functional, cell-based; settings: MDA-MB-231, 72 h
[13] = biological target: T1, Protein fem-1 homolog B/Histone deacetylase 1; assay: PROTAC activity at FEM1B/HDAC1 in human MM1.S cell lysate assessed as initial degradation at 1 uM measured after 24 hrs by Western immunoassay; format: subcellular
Target sequence in this assay (Q13547 whole entry, looked up): as the sequence (Q13547 whole entry, looked up) above
Target sequence in this assay (Q9UK73 whole entry, looked up): as the sequence (Q9UK73 whole entry, looked up) above

[14] = biological target: T1, Protein fem-1 homolog B/Histone deacetylase 1; assay: PROTAC activity at FEM1B/HDAC1 in human MM1.S cell lysate assessed as initial degradation measured after 24 hrs by Western immunoassay; format: subcellular
Target sequence in this assay (Q13547 whole entry): as the sequence (Q13547 whole entry, looked up) above
Target sequence in this assay (Q9UK73 whole entry): as the sequence (Q9UK73 whole entry, looked up) above

[15] = biological target: Protein fem-1 homolog B/Histone deacetylase 3 (Homo sapiens) (UniProt O15379+Q9UK73); assay: PROTAC activity at FEM1B/HDAC3 in human MM1.S cell lysate assessed as protein degradation at 1 uM measured after 24 hrs by Western immunoassay; format: subcellular
Histone deacetylase 1 = Histone deacetylase 1 (Homo sapiens, UniProt Q13547); assay: Inhibition of human recombinant HDAC1 using ZMAL (Z-(Ac)Lys-AMC) as substrate incubated for 90 mins by fluorescence based assay
[16] = biological target: T2, Protein deacetylase HDAC6 (Homo sapiens, UniProt Q9UBN7); assay: Inhibition of human HDAC6 using ZMAL (Z-(Ac)Lys-AMC) as substrate incubated for 90 mins by fluorescence based assay
T2 sequence (Q9UBN7 whole entry): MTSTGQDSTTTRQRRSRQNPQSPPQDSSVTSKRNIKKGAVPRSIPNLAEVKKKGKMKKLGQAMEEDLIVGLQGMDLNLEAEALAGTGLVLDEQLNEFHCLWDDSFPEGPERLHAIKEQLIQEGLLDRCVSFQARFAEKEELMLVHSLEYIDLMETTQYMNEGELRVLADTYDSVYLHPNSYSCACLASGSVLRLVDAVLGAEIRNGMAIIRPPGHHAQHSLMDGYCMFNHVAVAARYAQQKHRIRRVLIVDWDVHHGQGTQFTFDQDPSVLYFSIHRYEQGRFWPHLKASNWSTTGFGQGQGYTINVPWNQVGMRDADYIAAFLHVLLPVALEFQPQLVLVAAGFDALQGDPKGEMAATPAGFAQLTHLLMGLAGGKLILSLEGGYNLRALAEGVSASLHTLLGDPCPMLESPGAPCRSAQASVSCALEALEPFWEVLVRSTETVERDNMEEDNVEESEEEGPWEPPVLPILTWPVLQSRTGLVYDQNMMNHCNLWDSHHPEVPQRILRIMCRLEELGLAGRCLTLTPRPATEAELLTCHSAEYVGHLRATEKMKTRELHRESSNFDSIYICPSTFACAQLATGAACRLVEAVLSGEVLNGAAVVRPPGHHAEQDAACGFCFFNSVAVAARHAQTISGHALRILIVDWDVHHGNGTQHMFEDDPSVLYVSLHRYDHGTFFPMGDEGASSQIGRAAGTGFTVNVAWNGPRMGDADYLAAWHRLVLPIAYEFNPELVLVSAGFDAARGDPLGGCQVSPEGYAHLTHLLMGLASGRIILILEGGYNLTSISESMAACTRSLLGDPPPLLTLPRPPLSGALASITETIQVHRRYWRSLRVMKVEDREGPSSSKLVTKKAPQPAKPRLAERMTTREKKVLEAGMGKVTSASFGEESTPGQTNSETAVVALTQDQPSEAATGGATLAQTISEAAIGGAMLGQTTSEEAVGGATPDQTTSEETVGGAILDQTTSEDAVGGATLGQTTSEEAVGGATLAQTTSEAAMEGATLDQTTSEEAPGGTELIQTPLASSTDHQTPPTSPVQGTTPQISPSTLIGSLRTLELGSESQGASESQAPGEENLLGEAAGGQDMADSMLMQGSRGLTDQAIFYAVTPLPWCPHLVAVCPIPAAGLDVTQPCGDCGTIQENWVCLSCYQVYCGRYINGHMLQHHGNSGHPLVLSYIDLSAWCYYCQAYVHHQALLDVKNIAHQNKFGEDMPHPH

Histone deacetylase 2 = Histone deacetylase 2 (Homo sapiens, UniProt Q92769); assay: Inhibition of human HDAC2 using ZMAL (Z-(Ac)Lys-AMC) as substrate incubated for 90 mins by fluorescence based assay
[17] = biological target: T1, Protein fem-1 homolog B/Histone deacetylase 1; assay: PROTAC activity at FEM1B/HDAC1 in human MM1.S cell lysate assessed as protein degradation at 1 uM measured after 24 hrs by Western immunoassay; format: subcellular
Target sequence in this assay (Q13547 whole entry, looked up): as the sequence (Q13547 whole entry, looked up) above
Target sequence in this assay (Q9UK73 whole entry, looked up): as the sequence (Q9UK73 whole entry, looked up) above

MM1.S [18] = assay: Antiproliferative activity against human MM1.S cells assessed as cell viability measured after 72 hrs by CellTiter-Glo cell viability assay; format: functional, cell-based
[19] = biological target: Protein fem-1 homolog B/Histone deacetylase 2 (Homo sapiens) (UniProt Q92769+Q9UK73); assay: PROTAC activity at FEM1B/HDAC2 in human MM1.S cell lysate assessed as protein degradation at 1 uM measured after 24 hrs by Western immunoassay; format: subcellular
MM1.S [20] = assay: Antiproliferative activity against human MM1.S cells assessed as cell viability measured after 72 hrs incubation by MTT assay; format: functional, cell-based
Histone deacetylase 4 = Histone deacetylase 4 (Homo sapiens, UniProt P56524); assay: Inhibition of human HDAC4 using Boc-Lys(Tfa)-AMC as substrate incubated for 90 mins by fluorescence based assay; settings: read-out: IC50
[21] = biological target: Protein fem-1 homolog B/Histone deacetylase 4 (Homo sapiens) (UniProt P56524+Q9UK73); assay: PROTAC activity at FEM1B/HDAC4 in human MM1.S cell lysate assessed as protein degradation at 1 uM measured after 24 hrs by Western immunoassay; format: subcellular
[22] = biological target: Protein fem-1 homolog B/Protein deacetylase HDAC6 (Homo sapiens) (UniProt Q9UBN7+Q9UK73); assay: PROTAC activity at FEM1B/HDAC6 in human MM1.S cell lysate assessed as protein degradation at 1 uM measured after 24 hrs by Western immunoassay; format: subcellular
[23] = biological target: T1, Protein fem-1 homolog B/Histone deacetylase 1; assay: PROTAC activity at FEM1B/HDAC1 in human MDA-MB-231 cell lysate assessed as protein degradation at 10 uM measured after 24 hrs by Western immunoassay relative to control; format: subcellular
Target sequence in this assay (Q13547 whole entry, looked up): as the sequence (Q13547 whole entry, looked up) above
Target sequence in this assay (Q9UK73 whole entry, looked up): as the sequence (Q9UK73 whole entry, looked up) above

[24] = biological target: T1, Protein fem-1 homolog B/Histone deacetylase 1; assay: PROTAC activity at FEM1B/HDAC1 in human MM1.S cell lysate assessed as neddylation-dependent protein degradation at 1 uM measured after 24 hrs by Western immunoassay; format: subcellular
Target sequence in this assay (Q13547 whole entry, looked up): as the sequence (Q13547 whole entry, looked up) above
Target sequence in this assay (Q9UK73 whole entry, looked up): as the sequence (Q9UK73 whole entry, looked up) above

[25] = biological target: T1, Protein fem-1 homolog B/Histone deacetylase 1; assay: PROTAC activity at FEM1B/HDAC1 in human MV4-11 cell lysate assessed as protein degradation at 10 uM measured after 24 hrs by Western immunoassay relative to control; format: subcellular
Target sequence in this assay (Q13547 whole entry, looked up): as the sequence (Q13547 whole entry, looked up) above
Target sequence in this assay (Q9UK73 whole entry, looked up): as the sequence (Q9UK73 whole entry, looked up) above

[26] = biological target: T1, Protein fem-1 homolog B/Histone deacetylase 1; assay: PROTAC activity at FEM1B/HDAC1 in human U-87 MG cell lysate assessed as protein degradation at 10 uM measured after 24 hrs by Western immunoassay relative to control; format: subcellular

Sequence of Histone deacetylase 1 (Q13547 whole entry): as the sequence (Q13547 whole entry, looked up) above
Sequence of Histone deacetylase 4 (P56524 whole entry): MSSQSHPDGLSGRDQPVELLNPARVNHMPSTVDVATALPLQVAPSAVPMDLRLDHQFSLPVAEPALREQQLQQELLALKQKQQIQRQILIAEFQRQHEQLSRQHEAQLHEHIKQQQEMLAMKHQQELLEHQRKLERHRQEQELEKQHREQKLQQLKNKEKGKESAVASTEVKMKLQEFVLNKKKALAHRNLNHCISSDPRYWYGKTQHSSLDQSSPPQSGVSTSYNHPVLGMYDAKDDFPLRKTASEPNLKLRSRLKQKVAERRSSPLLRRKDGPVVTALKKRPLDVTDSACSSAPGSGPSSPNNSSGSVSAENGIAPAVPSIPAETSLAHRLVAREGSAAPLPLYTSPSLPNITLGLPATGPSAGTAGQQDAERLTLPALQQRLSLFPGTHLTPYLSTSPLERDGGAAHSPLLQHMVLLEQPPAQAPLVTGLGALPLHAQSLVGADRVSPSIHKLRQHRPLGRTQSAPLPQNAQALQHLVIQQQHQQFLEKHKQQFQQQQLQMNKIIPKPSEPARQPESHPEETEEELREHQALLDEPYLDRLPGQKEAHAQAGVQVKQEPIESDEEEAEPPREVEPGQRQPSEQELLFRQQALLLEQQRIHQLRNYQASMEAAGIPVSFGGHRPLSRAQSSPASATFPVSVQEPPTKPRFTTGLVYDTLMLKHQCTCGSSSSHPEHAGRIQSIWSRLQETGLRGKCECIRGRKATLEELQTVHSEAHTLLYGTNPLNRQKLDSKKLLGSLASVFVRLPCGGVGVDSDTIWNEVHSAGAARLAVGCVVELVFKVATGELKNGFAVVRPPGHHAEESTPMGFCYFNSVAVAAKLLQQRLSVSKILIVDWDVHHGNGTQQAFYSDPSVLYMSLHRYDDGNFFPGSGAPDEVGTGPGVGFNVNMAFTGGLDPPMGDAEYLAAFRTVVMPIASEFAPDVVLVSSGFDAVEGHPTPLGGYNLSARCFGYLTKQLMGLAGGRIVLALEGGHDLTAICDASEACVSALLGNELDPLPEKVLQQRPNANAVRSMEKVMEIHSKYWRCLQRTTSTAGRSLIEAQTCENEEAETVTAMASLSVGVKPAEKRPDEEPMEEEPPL
Sequence of Histone deacetylase 2 (Q92769 whole entry): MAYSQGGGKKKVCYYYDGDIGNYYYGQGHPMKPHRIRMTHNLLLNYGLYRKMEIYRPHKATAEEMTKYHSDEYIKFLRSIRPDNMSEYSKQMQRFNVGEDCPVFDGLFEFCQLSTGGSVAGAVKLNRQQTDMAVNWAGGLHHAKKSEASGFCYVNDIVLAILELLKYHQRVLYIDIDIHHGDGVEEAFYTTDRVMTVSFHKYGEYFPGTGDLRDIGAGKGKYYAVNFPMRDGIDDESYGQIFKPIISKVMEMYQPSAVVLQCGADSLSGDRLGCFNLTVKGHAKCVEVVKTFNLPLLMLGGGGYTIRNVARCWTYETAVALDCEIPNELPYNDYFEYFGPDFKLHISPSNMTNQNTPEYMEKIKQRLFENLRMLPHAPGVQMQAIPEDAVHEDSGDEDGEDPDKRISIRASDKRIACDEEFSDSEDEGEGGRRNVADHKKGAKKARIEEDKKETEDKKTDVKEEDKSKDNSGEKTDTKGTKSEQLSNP

Row | EC50 (MV4-11) [µM] | EC50 (U-87 MG [9]) [µM] | Activity [10] | Emax [11] [%] | EC50 (MDA-MB-231 [12]) [µM] | Activity [13] [%] | DC50 [14] [µM] | Activity [15] | IC50 (Histone deacetylase 1) [µM] | IC50 [16] [µM] | IC50 (Histone deacetylase 2) [µM] | Activity [17] | IC50 (Histone deacetylase 4) [µM] | Structure (SMILES) | Activity (MM1.S [1]) | Activity (MDA-MB-231 [2]) | Activity (U-87 MG [3]) | Activity (MM1.S [4]) | Activity (MM1.S [5]) | Activity (MM1.S [6]) | Activity (MM1.S [8]) | further results
1 | 1.14 | 66 | inactive | 79.8 | 8.68 | 61.9 | 0.482 | Active | 0.094 | 0.006 | 0.196 | Active | 8.6 | N#CCCN(C(=O)CCl)c1ccc2c(c1)OCCN2CC(=O)N1CCC(C(=O)Nc2ccc(C(=O)NCCCCCCC(=O)NO)cc2)CC1 | – | – | – | Active | Active | Active | Active | EC50 (MM1.S [18]; Homo sapiens, MM1.S, 72 h): 4.73 µM; Activity [19]: Active; EC50 (MM1.S [20]): 4.73 µM; Activity [21]: inactive; Activity [22]: inactive
2 | 0.958 | 37.4 | – | – | 26.5 | – | 0.257 | – | 0.074 | 0.009 | 0.156 | – | 13.3 | N#CCCN(C(=O)CCl)c1ccc2c(c1)OCCN2CC(=O)NCC(=O)Nc1ccc(C(=O)NCCCCCCC(=O)NO)cc1 | – | – | – | – | – | – | – | EC50 (MM1.S [18]; mm1.s): 2.33 µM
3 | 0.358 | 49.7 | inactive | 67.4 | 23.3 | 52.8 | 0.228 | Active | 0.07 | 0.004 | 0.143 | Active | 3.62 | N#CCCN(C(=O)CCl)c1ccc2c(c1)OCCN2CC(=O)NCCCCCCCC(=O)Nc1ccc(C(=O)NCCCCCCC(=O)NO)cc1 | – | – | – | Active | Active | Active | Active | EC50 (MM1.S [18]; Homo sapiens, MM1.S, 72 h): 2.28 µM; Activity [19]: Active; EC50 (MM1.S [20]): 2.28 µM; Activity [21]: inactive; Activity [22]: inactive

The next lines start with the compound.

Row | Structure (SMILES) | EC50 (MV4-11) [µM] | EC50 (U-87 MG [9]) [µM] | Activity [10] | Emax [11] [%] | EC50 (MDA-MB-231 [12]) [µM] | Activity [13] [%] | DC50 [14] [µM] | Activity [15] | IC50 (Histone deacetylase 1) [µM] | IC50 [16] [µM] | IC50 (Histone deacetylase 2) [µM] | Activity [17] | IC50 (Histone deacetylase 4) [µM] | Activity (MM1.S [1]) | Activity (MDA-MB-231 [2]) | Activity (U-87 MG [3]) | Activity (MM1.S [4]) | Activity (MM1.S [5]) | Activity (MM1.S [6]) | Activity (MM1.S [8]) | further results
4 | O=C(CCCCCCNC(=O)c1ccc(NC(=O)CCCCCCCNC(=O)COc2cccc3c2C(=O)N(C2CCC(=O)NC2=O)C3=O)cc1)NO (centres undefined) | 17.5 | – | – | – | – | – | – | – | – | – | – | – | – | <=25% | <=25% | <=25% | inactive | inactive | inactive | inactive | Activity (MM1.S [7]): inactive
5 | CCC(=O)N(CCC#N)c1ccc2c(c1)OCCN2CC(=O)NCC(=O)Nc1ccc(C(=O)NCCCCCCC(=O)NO)cc1.O=C(O)C(F)(F)F | 14.1 | – | – | – | – | – | – | – | – | – | – | – | – | <=25% | <=25% | <=25% | inactive | inactive | inactive | inactive | Activity [23]: inactive; Activity [24]: inactive; Activity [25]: inactive; Activity [26]: inactive
